What was measured:
Assay type in all cases: cell-based, human
[1] = system: p53, MDM2, p21 and Puma in MM1s cells; assay: Western blot and densitometry in miRNA-transfected cells treated with MI-219; conditions: for p53 protein in cells not treated with MI-219: forced miRNA expression, untreated MM1s cells, p<0.05; for p53 re-expression with p21 and Puma up-regulation: miRNA-transfected MM1s cells, 24 hr of 2.5 μM MI-219
Method: FIG. 5A: Effects of miR-192, miR-194 and miR-215 on endogenous p53, p21 and MDM2 levels (Western blots) in MM1s cells treated with MI-219 at different concentrations.
FIG. 5B: Densitometric analysis only for p53 in untreated cells and for p53 and MDM2 protein levels in 2.5, 5 and 10 μM MI-219-treated cells. All experiments were performed in triplicate ±SD.
Samples were extracted in 15 mM Tris.Cl, pH 7.5/120 mM NaCl/25 mM KCl/2 mM EGTA/0.1 mM DTT/0.5% Triton X-100/[…] leupeptin/0.5 mM PMSF. Total protein (35 μg) from each sample was separated on a 4-20% Tris-HCl-Criterion precast gel Bio-Rad (cat#345-0032, Hercules, Calif.) and transferred to a poly(vinylidene difluoride) filter (Millipore). The filter was blocked in 5% nonfat dry milk, incubated with the specific antibody, washed, and probed with secondary antibody IgG conjugated to horseradish peroxidase (Santa Cruz Biotechnology), and developed with enhanced chemiluminescence (Amersham Pharmacia). Immunoblot analyses were performed using the following antibodies: p53 (sc-53394, Santa Cruz Biotechnology), MDM2 (sc-965, Santa Cruz Biotechnology), phospho-MDM2 (Cat#3521, Cell Signaling), c-MYC (cs-40, Santa Cruz Biotechnology), IGF-1 (sc-9013, Santa Cruz Biotechnology), IGF-1R (Cat#3027, Cell Signaling), total-Akt (Cat#9272, Cell signaling), phospho-Akt (Cat#4060, Cell Signaling), total-S6 (Cat#2217, Cell Signaling), phospho-S6 (Cat#2211, Cell Signaling), p21 (sc-817, Santa Cruz Biotechnology), α-PUMA (Cat#4976, Cell Signaling), GAPDH (Cat#2118, Cell Signaling). Filters were reprobed with enzyme-conjugated antibodies to GFP and β-actin (Santa Cruz Biotechnology).
MM cells (from MM subjects or from cell lines) non-transfected or transfected with pre- or ASOs miR-192, miR-215, miR-194 and Scr sequence as described above, were treated with MDM2 inhibitor (Nutlin3a and MI-219). Fresh CD138+ primary PCs isolated from new diagnosed MM subjects as previously described were maintained in culture for 24 hr and then treated for 24 hr with 10 μM Nutlin-3a (Cayman Chemical Company) or vehicle (DMSO). For transfected cells at 24 hrs after transfection MM cells were treated with 10 μM Nutlin-3a (Cayman Chemical Company) or DMSO vehicle only at different time points. MMIS cells were also treated with MI-219 solution (10% PEG400/3% Cremophor EL/87% 1×PBS) or only vehicle (10% PEG400/3% Cremophor EL/87% 1×PBS) at different concentration (2.5, 5 and 10 μM) for 24 hr and collected for RNA and protein extractions.

[2] = system: NCI-H929 and RPMI-8226 IGF-1 treated cells; assay: Adhesion assay on fibronectin in response to IGF-1; conditions: ectopic expression, vs Scr control
Method: FIG. 21A, FIG. 21B: MM1s and RPMI-8226 cells (pre-miRNA-192, -194, -215, Scr sequence-transfected) at 48 hr after transfection were harvested, treated with calcein and incubated with IGF-1 (50 ng/ml) and their ability to adhere to fibronectin plates was assessed by fluorescence assay. MM1s (FIG. 21A) and RPMI-8226 (FIG. 21B) with ectopic re-expression of miR-192, 215 and also miR-194 lost their ability to respond to IGF-1 treatment compare to Scr sequence.
Before adhesion, MM cell lines were starved overnight in RPMI 1640/0.5% BSA, without loss of viability. Cells (5×10^6/ml) were labeled with calcein-a.m. (Molecular Probes, Eugene, Oreg.) for 30 min at 37° C., washed, and resuspended in adhesion medium (RPMI 1640/10% FBS). Cells were stimulated with or without IGF-1 at 0-200 ng/ml for 20 min and added in triplicate to Fibronectin-coated 48 well plates (BD Biosciences #354506, Bedford, Mass.) at 37° C. for 30 min, and unbound cells were removed by four washes with RPMI1640. The absorbance of each well was measured using 492/520 nm filter set with a fluorescence plate reader (Wallac VICTOR2; Perkin-Elmer, Boston, Mass.).

[3] = system: KMS-28BM cells; assay: Cell cycle analysis by flow cytometry (sub-G1); conditions: 48 hr after transfection; Scr control ~3%
Method: FIG. 3G, FIG. 3H, FIG. 31, FIG. 3J: Flow cytometry analysis in MM1s (FIG. 3G), NCI-H929 (FIG. 3H) and KMS28BM (FIG. 31) cells (miR-192, miR-194, miR-215 and Scr transfected) at 48 hr of transfection, after first being arrested and synchronized in G2/M phase by Nocodazole for 16 hr. Apoptosis in KMS28BM was evaluated by caspase-3 activity (FIG. 3J). All experiments were performed in triplicate ±SD.
Nocodazole was (Sigma-Aldrich) was dissolved in DMSO as a stock solution of 10 mg/ml for cell cycle arrest in G2/M phase. Cells were first arrested and synchronized in G2/M phase by growth in 80 nM nocodazole for 16 hr. Cells were then washed and fresh medium added. After 6 hr, cell cycle analysis was performed by propidium iodide staining. Corresponding amounts of DMSO alone were added in control experiments. […] For DNA content analysis, cells were fixed in methanol at −20° C., washed again, rehydrated, re-suspended in PBS containing 50 μg/ml propidium iodide (PI) and 50 μg/ml RNase A, and analyzed by flow cytometry (Becton Dickinson). […] After the treatment the cells were analyzed using Caspase-Glo 3 Assay kit (Promega) according to the manufacturer's instructions. Continuous variables were expressed as mean values ± standard deviation (s.d.).

[4] = system: IGF-1R and IGF-1 in MM1s cells; assay: Western blot of IGF-1R and IGF-1 after miRNA transfection; conditions: pre-miRNA transfected
Method: FIG. 6A, FIG. 6B: Western blot showing IGF-1R and IGF-1 expression after miR-192 and miR-215 transfection using pre (FIG. 6A) and ASOs (FIG. 6B) for miR-192, miR-215, miR-194 and Scr in MM1s cells treated for 12 hr with Nutlin-3a.
Samples were extracted in 15 mM Tris.Cl, pH 7.5/120 mM NaCl/25 mM KCl/2 mM EGTA/0.1 mM DTT/0.5% Triton X-100/[…] leupeptin/0.5 mM PMSF. Total protein (35 μg) from each sample was separated on a 4-20% Tris-HCl-Criterion precast gel Bio-Rad (cat#345-0032, Hercules, Calif.) and transferred to a poly(vinylidene difluoride) filter (Millipore). The filter was blocked in 5% nonfat dry milk, incubated with the specific antibody, washed, and probed with secondary antibody IgG conjugated to horseradish peroxidase (Santa Cruz Biotechnology), and developed with enhanced chemiluminescence (Amersham Pharmacia). […]

Substance | p53 protein in cells not treated with MI-219 [1] | p53 re-expression with p21 and Puma up-regulation [1] | cell adhesion [2] | sub-G1 fraction (indicative of cell death) [3] [%] | IGF-1R and IGF-1 protein levels [4]
miR-192: microRNA, p53-activated, down-regulated in MM; transfected as miRNA precursor (Ambion) or lentivector; SEQ ID NO:56 (CUGACCUAUGAAUUGACAGCC; listed as RNA, chemistry not given here; listed as Homo sapiens) | p53 became detectable | Dramatic p53 re-expression | significant decrease | ~25 | decreased
miR-215: microRNA, p53-activated, down-regulated in MM; transfected as miRNA precursor (Ambion) or lentivector; SEQ ID NO:58 (AUGACCUAUGAAUUGACAGAC; listed as RNA, chemistry not given here; listed as Homo sapiens) | p53 became detectable | Dramatic p53 re-expression | significant decrease | 30 | decreased

— US20130150430A1, “Methods for Impairing the P53/HDM2 Auto-Regulatory Loop in Multiple Myeloma Development Using mIR-192, mIR-194 and mIR-215” (THE OHIO STATE UNIVERSITY, priority 2011, published 2013)
